Reference: patent US12528805B2, “Solid forms of emetine” (Acer Therapeutics, Inc., priority 2020, dated 2026)
Structures can show the parent of a compound that is named as a salt.

Experiment: Thermodynamic solubility study (HPLC of mother liquors)
Assay type: physicochemical
Settings: thermodynamic from solid
Description: To obtain accurate solubility and residual solid form data for amorphous Compound I dihydrochloride, thermodynamic solubility studies were carried out on amorphous input material in selected solvent systems at 50° C. and 5° C. (Table 6).

Which solubility thermodynamic at 23 h (organic solvent or mixture, 2-propanol:heptane 70:30 v/v, 5° C.) does the source give for `CC[C@H]1CN2CCc3cc(OC)c(OC)cc3[C@@H]2C[C@@H]1C[C@H]1NCCc2cc(OC)c(OC)cc21` [Amorphous Compound I dihydrochloride] here?
Its solubility thermodynamic at 23 h is < 10 mg/mL.

And the solubility thermodynamic at 23 h (organic solvent or mixture, 2-propanol:heptane 70:30 v/v, 50° C.)?
The solubility thermodynamic at 23 h was ~20 mg/mL.

What about the solubility thermodynamic at 23 h (organic solvent or mixture, 2-propanol:heptane 90:10 v/v, 5° C.) of the same compound?
Its solubility thermodynamic at 23 h is 10 to 40 mg/mL.

What about the solubility thermodynamic at 23 h (organic solvent or mixture, 2-propanol:heptane 90:10 v/v, 50° C.) of the same compound?
Its solubility thermodynamic at 23 h is 40 to 115 mg/mL.

What about the solubility thermodynamic at 23 h (organic solvent or mixture, 2-propanol:water 95:5 v/v, 5° C.) of the same compound?
Its solubility thermodynamic at 23 h is 10 to 40 mg/mL.

What about the solubility thermodynamic at 23 h (organic solvent or mixture, 2-propanol:water 95:5 v/v, 50° C.) of the same compound?
Its solubility thermodynamic at 23 h is 40 to 115 mg/mL.

And the solubility thermodynamic at 23 h (organic solvent or mixture, 2-propanol:water 99:1 v/v, 5° C.)?
The solubility thermodynamic at 23 h was 10 to 40 mg/mL.

And the solubility thermodynamic at 23 h (organic solvent or mixture, 2-propanol:water 99:1 v/v, 50° C.)?
Its solubility thermodynamic at 23 h is 40 to 115 mg/mL.

What about the solubility thermodynamic at 23 h (organic solvent or mixture, 2-propanol, 5° C.) of the same compound?
The solubility thermodynamic at 23 h was 10 to 40 mg/mL.

And the solubility thermodynamic at 23 h (organic solvent or mixture, 2-propanol, 50° C., experiment remained unsaturated)?
Its solubility thermodynamic at 23 h is > 215 mg/mL.

And the solubility thermodynamic at 23 h (organic solvent or mixture, acetone:water 60:40 v/v, 5° C., experiment remained unsaturated)?
Its solubility thermodynamic at 23 h is > 125 mg/mL.

What about the solubility thermodynamic at 23 h (organic solvent or mixture, acetone:water 60:40 v/v, 50° C., experiment remained unsaturated) of the same compound?
Its solubility thermodynamic at 23 h is > 215 mg/mL.

What about the solubility thermodynamic at 23 h (organic solvent or mixture, acetone:water 70:30 v/v, 5° C., experiment remained unsaturated) of the same compound?
The solubility thermodynamic at 23 h was > 125 mg/mL.

What about the solubility thermodynamic at 23 h (organic solvent or mixture, acetone:water 70:30 v/v, 50° C., experiment remained unsaturated) of the same compound?
Its solubility thermodynamic at 23 h is > 215 mg/mL.

What about the solubility thermodynamic at 23 h (organic solvent or mixture, acetone:water 90:10 v/v, 5° C.) of the same compound?
Its solubility thermodynamic at 23 h is 10 to 40 mg/mL.

And the solubility thermodynamic at 23 h (organic solvent or mixture, acetone:water 90:10 v/v, 50° C.)?
The solubility thermodynamic at 23 h was 40 to 115 mg/mL.

What about the solubility thermodynamic at 23 h (organic solvent or mixture, ethanol:heptane 60:40 v/v, 5° C.) of the same compound?
The solubility thermodynamic at 23 h was < 10 mg/mL.

What about the solubility thermodynamic at 23 h (organic solvent or mixture, ethanol:heptane 60:40 v/v, 50° C.) of the same compound?
The solubility thermodynamic at 23 h was 40 to 115 mg/mL.

And the solubility thermodynamic at 23 h (organic solvent or mixture, ethanol:heptane 80:20 v/v, 5° C.)?
Its solubility thermodynamic at 23 h is 10 to 40 mg/mL.

What about the solubility thermodynamic at 23 h (organic solvent or mixture, ethanol:heptane 80:20 v/v, 50° C., experiment remained unsaturated) of the same compound?
Its solubility thermodynamic at 23 h is > 215 mg/mL.

And the solubility thermodynamic at 23 h (organic solvent or mixture, ethanol, 5° C.)?
Its solubility thermodynamic at 23 h is 10 to 40 mg/mL.

And the solubility thermodynamic at 23 h (organic solvent or mixture, ethanol, 50° C., experiment remained unsaturated)?
Its solubility thermodynamic at 23 h is > 215 mg/mL.

And the solubility thermodynamic at 23 h (water, 5° C.)?
The solubility thermodynamic at 23 h was 65 mg/mL.

And the solubility thermodynamic at 23 h (water, 50° C., experiment remained unsaturated)?
Its solubility thermodynamic at 23 h is > 215 mg/mL.
